pIC50: −log10 of the molar value.
Experiments:
Assay type in all cases: cell-based
human TLR8 = molecular target: T1, human TLR8 (Homo sapiens, UniProt Q9NR97); test: TLR8 inhibition reporter assay (HEK-Blue cells, SEAP reporter, R848 stimulation); settings: HEK-Blue cells overexpressing human TLR8, SEAP reporter, R848 15.9 μM; read-out: TLR8 IC50
T1 construct: host or cells: HEK-Blue cells
T1 sequence (Q9NR97 27-1041): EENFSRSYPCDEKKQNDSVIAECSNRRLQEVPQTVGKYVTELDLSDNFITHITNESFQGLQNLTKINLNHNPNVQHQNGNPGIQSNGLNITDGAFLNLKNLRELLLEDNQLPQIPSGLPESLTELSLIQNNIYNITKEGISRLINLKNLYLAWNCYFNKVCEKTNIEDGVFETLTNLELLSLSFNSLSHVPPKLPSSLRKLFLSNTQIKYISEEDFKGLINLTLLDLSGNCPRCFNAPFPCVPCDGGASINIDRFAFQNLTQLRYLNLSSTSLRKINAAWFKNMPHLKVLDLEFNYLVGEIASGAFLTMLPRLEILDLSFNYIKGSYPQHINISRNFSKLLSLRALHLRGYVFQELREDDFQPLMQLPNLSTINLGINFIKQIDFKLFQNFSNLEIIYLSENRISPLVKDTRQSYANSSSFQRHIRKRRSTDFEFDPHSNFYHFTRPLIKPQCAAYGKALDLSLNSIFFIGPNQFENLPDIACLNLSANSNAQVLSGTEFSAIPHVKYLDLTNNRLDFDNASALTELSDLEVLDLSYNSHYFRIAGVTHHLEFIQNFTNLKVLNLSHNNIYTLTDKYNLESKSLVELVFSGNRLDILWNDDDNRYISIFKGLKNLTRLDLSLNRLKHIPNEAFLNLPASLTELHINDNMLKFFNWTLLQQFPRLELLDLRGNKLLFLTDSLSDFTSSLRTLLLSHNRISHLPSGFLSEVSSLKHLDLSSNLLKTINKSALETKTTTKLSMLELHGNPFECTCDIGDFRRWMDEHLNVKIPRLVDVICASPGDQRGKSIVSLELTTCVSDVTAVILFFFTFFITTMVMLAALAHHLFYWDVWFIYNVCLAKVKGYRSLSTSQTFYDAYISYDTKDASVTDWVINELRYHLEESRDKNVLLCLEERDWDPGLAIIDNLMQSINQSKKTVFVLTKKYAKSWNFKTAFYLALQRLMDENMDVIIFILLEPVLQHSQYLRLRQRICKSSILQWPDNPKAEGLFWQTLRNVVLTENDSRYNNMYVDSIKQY
How it was run: (§1)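 HEK-Blue cells overexpressing human TLR7, TLR8 or TLR9 carry a SEAP reporter driven by NF-κB/AP-1 sites. Compounds (0.05 nM–50 μM) were preincubated 30 min at room temperature, then cells were stimulated with gardiquimod 7.5 μM (TLR7), R848 15.9 μM (TLR8) or ODN2006 5 nM (TLR9) for 22 h at 37 °C.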

human TLR7 = molecular target: T2, human TLR7 (Homo sapiens, UniProt Q9NYK1); test: TLR7 inhibition reporter assay (HEK-Blue cells, SEAP reporter, gardiquimod stimulation); settings: HEK-Blue cells overexpressing human TLR7, SEAP reporter, gardiquimod 7.5 μM; read-out: TLR7 IC50
T2 construct: host or cells: HEK-Blue cells
T2 sequence (Q9NYK1 27-1049): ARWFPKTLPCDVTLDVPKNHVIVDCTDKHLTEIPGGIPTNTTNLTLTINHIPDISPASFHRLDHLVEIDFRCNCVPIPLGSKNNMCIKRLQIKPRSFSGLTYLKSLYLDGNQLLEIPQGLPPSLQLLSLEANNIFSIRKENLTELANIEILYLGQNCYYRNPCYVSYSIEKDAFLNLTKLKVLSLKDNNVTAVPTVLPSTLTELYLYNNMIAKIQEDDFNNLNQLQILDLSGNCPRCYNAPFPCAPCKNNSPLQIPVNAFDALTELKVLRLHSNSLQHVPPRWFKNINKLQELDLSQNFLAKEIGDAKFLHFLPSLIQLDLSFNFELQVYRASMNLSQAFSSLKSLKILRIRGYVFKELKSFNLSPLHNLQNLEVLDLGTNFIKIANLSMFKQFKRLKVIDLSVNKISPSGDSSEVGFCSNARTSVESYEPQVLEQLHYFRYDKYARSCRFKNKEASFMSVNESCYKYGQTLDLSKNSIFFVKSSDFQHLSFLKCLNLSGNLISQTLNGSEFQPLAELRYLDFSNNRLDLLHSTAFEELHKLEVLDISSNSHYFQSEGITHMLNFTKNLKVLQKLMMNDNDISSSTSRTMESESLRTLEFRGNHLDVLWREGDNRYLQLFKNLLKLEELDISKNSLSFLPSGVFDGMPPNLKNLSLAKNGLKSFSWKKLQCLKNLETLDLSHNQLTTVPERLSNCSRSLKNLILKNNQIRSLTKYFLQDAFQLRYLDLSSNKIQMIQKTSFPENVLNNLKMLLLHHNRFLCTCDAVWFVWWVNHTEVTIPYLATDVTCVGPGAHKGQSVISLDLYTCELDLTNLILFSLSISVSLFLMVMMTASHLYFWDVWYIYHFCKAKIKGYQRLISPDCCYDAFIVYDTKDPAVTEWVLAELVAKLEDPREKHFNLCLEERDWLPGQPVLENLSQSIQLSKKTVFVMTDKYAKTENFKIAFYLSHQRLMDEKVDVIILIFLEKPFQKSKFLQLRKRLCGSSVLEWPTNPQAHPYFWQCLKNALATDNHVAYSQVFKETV
How it was run: as §1

human TLR9 = molecular target: T3, human TLR9 (Homo sapiens, UniProt Q9NR96); test: TLR9 inhibition reporter assay (HEK-Blue cells, SEAP reporter, ODN2006 stimulation); settings: HEK-Blue cells overexpressing human TLR9, SEAP reporter, ODN2006 5 nM
T3 construct: host or cells: HEK-Blue cells
T3 sequence (Q9NR96 26-1032): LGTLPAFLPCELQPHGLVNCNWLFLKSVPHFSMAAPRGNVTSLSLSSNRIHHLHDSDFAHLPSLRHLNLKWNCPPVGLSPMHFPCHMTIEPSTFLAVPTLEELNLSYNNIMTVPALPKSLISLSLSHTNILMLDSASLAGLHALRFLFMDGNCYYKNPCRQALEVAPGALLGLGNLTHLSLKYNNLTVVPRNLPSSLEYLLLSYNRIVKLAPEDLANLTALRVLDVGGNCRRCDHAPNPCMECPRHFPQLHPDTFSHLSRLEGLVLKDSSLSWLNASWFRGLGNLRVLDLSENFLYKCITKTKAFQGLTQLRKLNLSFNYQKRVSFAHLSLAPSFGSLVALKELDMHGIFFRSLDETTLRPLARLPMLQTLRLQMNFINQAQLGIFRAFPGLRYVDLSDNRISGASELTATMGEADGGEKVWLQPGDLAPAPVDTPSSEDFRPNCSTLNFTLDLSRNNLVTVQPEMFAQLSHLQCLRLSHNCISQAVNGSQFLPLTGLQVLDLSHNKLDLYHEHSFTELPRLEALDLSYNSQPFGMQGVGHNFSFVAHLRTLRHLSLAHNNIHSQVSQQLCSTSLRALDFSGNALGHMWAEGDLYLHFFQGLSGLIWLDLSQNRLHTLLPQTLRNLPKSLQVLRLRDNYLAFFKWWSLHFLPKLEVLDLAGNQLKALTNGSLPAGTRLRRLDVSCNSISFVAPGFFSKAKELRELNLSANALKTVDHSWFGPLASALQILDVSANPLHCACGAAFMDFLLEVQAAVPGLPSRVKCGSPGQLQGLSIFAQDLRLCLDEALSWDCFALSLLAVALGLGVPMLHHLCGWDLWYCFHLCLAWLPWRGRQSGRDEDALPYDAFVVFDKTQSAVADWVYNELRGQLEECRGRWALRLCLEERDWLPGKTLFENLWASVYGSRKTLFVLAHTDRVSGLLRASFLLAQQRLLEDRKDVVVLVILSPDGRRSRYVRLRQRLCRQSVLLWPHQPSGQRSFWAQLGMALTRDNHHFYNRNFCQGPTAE
How it was run: as §1

| SMILES | pIC50 (human TLR8) | pIC50 (human TLR7) | pIC50 (human TLR9) |
| --- | --- | --- | --- |
| CCN(C)C1CCC(c2nc3c(C(C)C)c(-c4cn(C)c(=O)c(C)c4C)[nH]c3s2)CC1 (single isomer, unassigned) [Example 247, 5-(2-(4-(ethyl(methyl)amino)cyclohexyl)-6-isopropyl-4H-pyrrolo[3,2-d]thiazol-5-yl)-1,3,4-trimethylpyridin-2(1H)-one] | 8.35 | 8.23 | 4.37 |
| CCN(C)C1CCC(c2nc3c(C(C)C)c(-c4cn(C)c(=O)c(C)c4C)[nH]c3s2)CC1 (single isomer, unassigned) [Example 248, 5-(2-(4-(ethyl(methyl)amino)cyclohexyl)-6-isopropyl-4H-pyrrolo[3,2-d]thiazol-5-yl)-1,3,4-trimethylpyridin-2(1H)-one] | 7.92 | 8.08 | 4.85 |
| Cc1c(-c2[nH]c3sc(C4CCC(NC5CCOCC5)CC4)nc3c2C(C)C)cn(C)c(=O)c1C (single isomer, unassigned) [Example 249, 5-(6-isopropyl-2-(4-((tetrahydro-2H-pyran-4-yl)amino)cyclohexyl)-4H-pyrrolo[3,2-d]thiazol-5-yl)-1,3,4-trimethylpyridin-2(1H)-one] | 8.92 | 8.20 | 4.70 |
| Cc1c(-c2[nH]c3sc(C4CCC(NC5CCOCC5)CC4)nc3c2C(C)C)cn(C)c(=O)c1C (single isomer, unassigned) [Example 250, 5-(6-isopropyl-2-(4-((tetrahydro-2H-pyran-4-yl)amino)cyclohexyl)-4H-pyrrolo[3,2-d]thiazol-5-yl)-1,3,4-trimethylpyridin-2(1H)-one] | 7.36 | 7.33 | 4.36 |
| Cc1c(-c2[nH]c3sc(C4CCC(NCC(C)(C)O)CC4)nc3c2C(C)C)cn(C)c(=O)c1C (single isomer, unassigned) [Example 251, 5-(2-(4-((2-hydroxy-2-methylpropyl)amino)cyclohexyl)-6-isopropyl-4H-pyrrolo[3,2-d]thiazol-5-yl)-1,3,4-trimethylpyridin-2(1H)-one] | 8.57 | 7.97 | 4.34 |
| Cc1c(-c2[nH]c3sc(C4CCC(NCC(C)(C)O)CC4)nc3c2C(C)C)cn(C)c(=O)c1C (single isomer, unassigned) [Example 252, 5-(2-(4-((2-hydroxy-2-methylpropyl)amino)cyclohexyl)-6-isopropyl-4H-pyrrolo[3,2-d]thiazol-5-yl)-1,3,4-trimethylpyridin-2(1H)-one] | 7.45 | 7.17 | < 4.30 |
| Cc1c(-c2[nH]c3sc(C4CCC(NC(C)C)CC4)nc3c2C(C)C)cn(C)c(=O)c1C (single isomer, unassigned) [Example 253, 5-(6-isopropyl-2-(4-(isopropylamino)cyclohexyl)-4H-pyrrolo[3,2-d]thiazol-5-yl)-1,3,4-trimethylpyridin-2(1H)-one] | 8.52 | 8.33 | 4.64 |
| Cc1c(-c2[nH]c3sc(C4CCC(NC(C)C)CC4)nc3c2C(C)C)cn(C)c(=O)c1C (single isomer, unassigned) [Example 254, 5-(6-isopropyl-2-(4-(isopropylamino)cyclohexyl)-4H-pyrrolo[3,2-d]thiazol-5-yl)-1,3,4-trimethylpyridin-2(1H)-one] | 7.64 | 7.57 | 4.54 |
| Cc1c(-c2[nH]c3sc(C4CCC(N5CCC5)CC4)nc3c2C(C)C)cn(C)c(=O)c1C (single isomer, unassigned) [Example 255, 5-(2-(4-(azetidin-1-yl)cyclohexyl)-6-isopropyl-4H-pyrrolo[3,2-d]thiazol-5-yl)-1,3,4-trimethylpyridin-2(1H)-one] | 8.31 | 8.16 | 4.82 |
| Cc1c(-c2[nH]c3sc(C4CCC(N5CCC5)CC4)nc3c2C(C)C)cn(C)c(=O)c1C (single isomer, unassigned) [Example 256, 5-(2-(4-(azetidin-1-yl)cyclohexyl)-6-isopropyl-4H-pyrrolo[3,2-d]thiazol-5-yl)-1,3,4-trimethylpyridin-2(1H)-one] | 7.50 | 7.46 | 4.77 |
| Cc1c(-c2[nH]c3sc(C4CCC(NCC5(S(C)(=O)=O)CC5)CC4)nc3c2C(C)C)cn(C)c(=O)c1C (single isomer, unassigned) [Example 257, 5-(6-isopropyl-2-(4-(((1-(methylsulfonyl)cyclopropyl)methyl)amino)cyclohexyl)-4H-pyrrolo[3,2-d]thiazol-5-yl)-1,3,4-trimethylpyridin-2(1H)-one] | 9.07 | 7.87 | 4.46 |
| Cc1c(-c2[nH]c3sc(C4CCC(NCC5(S(C)(=O)=O)CC5)CC4)nc3c2C(C)C)cn(C)c(=O)c1C (single isomer, unassigned) [Example 258, 5-(6-isopropyl-2-(4-(((1-(methylsulfonyl)cyclopropyl)methyl)amino)cyclohexyl)-4H-pyrrolo[3,2-d]thiazol-5-yl)-1,3,4-trimethylpyridin-2(1H)-one] | 8.04 | 7.44 | 4.53 |

Source: US20230139171A1 (SITA Information Networking Computing UK Limited, priority 2019, published 2023)
